Measured values taken from patent US9415046B2, “Compositions and methods for inhibiting inflammation from and rejection of biomaterials and other methods” (YALE UNIVERSITY, priority 2009, dated 2016).
Entries after “also recorded” stand apart in the source; their conditions may differ.

How the values were obtained:
Assay type in all cases: in vivo
wild-type mice [1] = experiment: Foreign body reaction to subcutaneously implanted 6 mm silicone disc; settings: silicone implant, one month, aspirin 60 mg/ml in drinking water, P<0.05 compared to no ASA, FIG. 7
Experimental: Two models of the foreign body reaction were tested. In the first model, injection of 150 micron polystyrene beads into the abdominal cavity of C57BL/6 was followed by analysis of cellular infiltrate 24 hours later. In the second model, implantation of a 6 mm disc of silicone subcutaneously was followed by analysis of the foreign body reaction about one month later. The above two models were performed on mice on normal drinking water or with aspirin (60 mg/ml). […] The experiment evidenced that the cellular infiltrate at 24 hours was comprised principally of immune cells (neutrophils and macrophages). […] A 6 mm disc of silicone was implanted subcutaneously in experimental mice (see above), followed by analysis of the foreign body reaction around one month later. The mice were placed on normal drinking water or water with aspirin at a concentration of 60 mg/ml. […] Wild-type mice were implanted with a silicone capsule on the side of the muscle and on the side of the skin. The mice were either given regular drinking water or drinking water containing 60 mg/ml aspirin. After one month, the mice were then analyzed to determine if there was an impact on the foreign body reaction which occurred as a consequence of implanting the silicone capsulate.

wild-type mice [2] = experiment: APAP (acetaminophen) induced liver inflammation, liver injury and mortality; settings: by down regulation of pro-inflammatory cytokines
Experimental: APAP (Sigma, Mo.) solution was made fresh for each experiment in PBS at 20 mg/ml and heated in a water bath to 55° C. to dissolve. APAP was dosed at 500 mg/kg and injected I.P after 15 hrs of starvation. Animals were euthanized by ketamine/xylazine injection at 12 hours for collection of serum, isolation of liver lymphocytes or collection of liver tissue for histology, or they were observed every four hours for 72 hours until they reached criteria for euthanasia (lack of response to stimuli or lack of righting reflex). FIGS. 3A and B show less hemorrhage and cell death in the livers of mice lacking TLR9 compared to wild-type and FIGS. 3C and D show a similar affect of TLR7. […] The data was generated by a single ip injection of APAP at a dose of 500 mg/kg. Data in Figures A to D was generated 12 hours after APAP and E and F is over a 3 day period.
Data was generated 12 hours after injection of APAP. […] The data was generated over 72 hours (3 days). […] Data was generated from 23 hours after injection of APAP.

C57BL/6 mice = experiment: Foreign body reaction to 150 micron polystyrene beads injected into the abdominal cavity; settings: 24 hours, FIG. 2
Experimental: Two models of the foreign body reaction were tested. In the first model, injection of 150 micron polystyrene beads into the abdominal cavity of C57BL/6 was followed by analysis of cellular infiltrate 24 hours later. In the second model, implantation of a 6 mm disc of silicone subcutaneously was followed by analysis of the foreign body reaction about one month later. The above two models were performed on mice on normal drinking water or with aspirin (60 mg/ml). […] The experiment evidenced that the cellular infiltrate at 24 hours was comprised principally of immune cells (neutrophils and macrophages).

`CC(=O)Oc1ccccc1C(=O)O` [aspirin, acetylsalicylic acid] was tested, and the “thickness of the foreign body reaction capsule on the side of the muscle and on the side of the skin” value (wild-type mice [1]) was “significant reduction”, the “effect on acetaminophen-induced liver injury” value (wild-type mice [2]) was “protective effect” and the “foreign body reaction to polystyrene beads (number of cells in cellular infiltrate)” value (C57BL/6 mice; continuous aspirin in drinking water (60 mg/ml)) was “substantially diminished; also recorded: significantly reduced”. The “composition of the cellular infiltrate (neutrophils and macrophages)” value (C57BL/6 mice; continuous aspirin) was “not significantly altered”.
